Source: article PMC8086025, “A benzopyran with antiarrhythmic activity is an inhibitor of Kir3.1-containing potassium channels” (The Journal of Biological Chemistry, 2021)
pIC50: −log10 of the molar value. Values joined by “and” are separate entries in the source; they are usually repeats but may differ in a detail not shown here. Equal entries are not always repeated.

Assays:
Kir3.1/2 channel = target: T1, Kir3.1/2 channel (UniProt P48542+P48549); test: TEVC in Xenopus oocytes, Kir3.1/2; assay type: cell-based, human Kir3.1, mouse Kir3.2; set-up: expressed in transfected cells; details: TEVC oocyte experiments; read-out: IC50, inhibition of Kir3.1/2
T1 sequence (P48549 1-501): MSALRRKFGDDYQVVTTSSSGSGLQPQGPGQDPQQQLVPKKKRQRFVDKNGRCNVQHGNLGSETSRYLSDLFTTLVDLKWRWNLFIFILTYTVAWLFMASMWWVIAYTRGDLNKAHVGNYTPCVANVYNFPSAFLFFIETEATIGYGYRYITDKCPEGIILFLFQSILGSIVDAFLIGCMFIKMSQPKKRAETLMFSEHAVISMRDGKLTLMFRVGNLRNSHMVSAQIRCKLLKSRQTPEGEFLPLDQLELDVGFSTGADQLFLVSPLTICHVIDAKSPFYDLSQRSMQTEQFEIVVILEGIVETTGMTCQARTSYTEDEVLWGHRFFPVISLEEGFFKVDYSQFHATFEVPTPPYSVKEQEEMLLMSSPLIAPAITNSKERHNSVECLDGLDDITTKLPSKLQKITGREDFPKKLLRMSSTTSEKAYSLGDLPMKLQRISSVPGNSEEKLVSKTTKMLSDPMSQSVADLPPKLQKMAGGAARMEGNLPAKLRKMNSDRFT
T1 sequence (P48542 1-425): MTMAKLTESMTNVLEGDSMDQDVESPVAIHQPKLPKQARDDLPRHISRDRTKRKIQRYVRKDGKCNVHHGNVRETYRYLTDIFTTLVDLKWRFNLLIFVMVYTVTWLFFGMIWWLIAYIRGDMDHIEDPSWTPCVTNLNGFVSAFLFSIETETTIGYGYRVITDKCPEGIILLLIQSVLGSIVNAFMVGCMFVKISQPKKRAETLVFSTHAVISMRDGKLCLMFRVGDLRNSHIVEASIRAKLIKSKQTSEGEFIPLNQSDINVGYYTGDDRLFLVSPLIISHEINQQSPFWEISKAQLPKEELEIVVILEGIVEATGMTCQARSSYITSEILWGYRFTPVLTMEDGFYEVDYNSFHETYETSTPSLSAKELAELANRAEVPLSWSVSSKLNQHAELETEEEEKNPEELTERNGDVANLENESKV
Protocol: X. laevis oocytes were isolated and microinjected as previously described ([6]). Human Kir3.1, mouse Kir3.2, and human Kir3.4 DNA constructs were used for electrophysiology experiments. All cRNA constructs were injected in the amount of 2 ng per oocyte. Injected oocytes were incubated for 2 to 3 days at 18 °C to allow for expression. Whole-cell oocyte currents were then measured using a GeneClamp 500 amplifier (Axon Instruments). Microelectrodes had resistances of 0.5 to 1 megohm using a 3M KCl solution in 1.4% agarose. Oocytes were perfused with a low K^+ (LK) solution ND96 (2 mM KCl, 96 mM NaCl, 1 mM MgCl2, 1.8 mM CaCl2, 5 mM HEPES-Na) to establish a baseline for the recordings. Basal current was measured in a high potassium (HK) solution ND96K (96 mM KCl, 10 mM HEPES-K, 1 mM MgCl2, 1.8 mM CaCl2). To block the current, the oocyte chamber was perfused with 4 mM BaCl2 in ND96K. Only the Barium-sensitive current was used for statistical analysis. To measure the inhibitory activity of the channels, 1 μM BP-G1 in ND96K (HK) was used. Typically, oocytes were held at 0 mV (EK) and the current was monitored constantly using a ramp protocol with a command potential from −80 to +80 mV. Current amplitude was measured at the end of a 1 s sweep. All currents were analyzed when they reached steady state. Error bars in the figures represent SD (N > 4).

[1] = system: Kir2.1, Kir2.3, Kir3.1∗, Kir3.2∗, Kir3.4∗, Kir3.1∗/Kir3.2 and Kir3.1∗/Kir3.4; test: TEVC in Xenopus oocytes, selectivity over other Kir channels; assay type: cell-based; details: 1 μM
Kv4.3 = Kv4.3 (Homo sapiens, UniProt Q9UK17); test: Cloned cardiac ion channel patch clamp, Kv4.3; assay type: cell-based
Protocol: (§1) For the data shown in Table S6, HEK293 cells expressing Kir3.1/4, Kir6.2/SUR2A (provided by Dr Andrew Tinker), Kir3.4, Kir2.1, and CHO cell lines stably expressing hERG KV1.5, KV4.3, NaV1.5 were maintained in media containing 10% FCS and appropriate selection antibiotic. Cells were grown either in suspension or in T-flasks and routinely passaged. Cells for patch clamping experiments were plated onto glass cover slips prior to use. Cells for automated patch clamping experiments were freshly prepared on each experimental day.
(§2) Standard giga-seal whole-cell patch-clamp techniques were performed at room temperature using glass pipettes (2–5 MΩ). HEKA EPC9/10 amplifiers and Pulse software were used for data acquisition. Series resistance was compensated by >70%. Experimental solutions are given under Supporting information. […]
(§3) Ionic current recordings were analyzed using HEKA software. […]
(§4) Inhibition of current (or leak-subtracted current) was calculated from steady-state current recorded in the absence (IControl) and presence of test-article (IIntervention). […]
(§5) Concentration-response data were fitted with a sigmoidal function of the form above, where YMin and YMax represent maximum and minimum current inhibition which were constrained to 100 and 0 respectively and x is the Log[DRUG (M)] based on GraphPad Prism analysis. % inhibition was calculated as in Equation 1. […]

Nav1.5 = Nav1.5 (Homo sapiens, UniProt Q14524); test: Cloned cardiac ion channel manual patch clamp, Nav1.5; assay type: cell-based; details: 1Hz; MPC (manual patch clamp)
Protocol: as §1, §2, §3, §4, §5

Chain of Nav1.5 (Q14524 whole entry): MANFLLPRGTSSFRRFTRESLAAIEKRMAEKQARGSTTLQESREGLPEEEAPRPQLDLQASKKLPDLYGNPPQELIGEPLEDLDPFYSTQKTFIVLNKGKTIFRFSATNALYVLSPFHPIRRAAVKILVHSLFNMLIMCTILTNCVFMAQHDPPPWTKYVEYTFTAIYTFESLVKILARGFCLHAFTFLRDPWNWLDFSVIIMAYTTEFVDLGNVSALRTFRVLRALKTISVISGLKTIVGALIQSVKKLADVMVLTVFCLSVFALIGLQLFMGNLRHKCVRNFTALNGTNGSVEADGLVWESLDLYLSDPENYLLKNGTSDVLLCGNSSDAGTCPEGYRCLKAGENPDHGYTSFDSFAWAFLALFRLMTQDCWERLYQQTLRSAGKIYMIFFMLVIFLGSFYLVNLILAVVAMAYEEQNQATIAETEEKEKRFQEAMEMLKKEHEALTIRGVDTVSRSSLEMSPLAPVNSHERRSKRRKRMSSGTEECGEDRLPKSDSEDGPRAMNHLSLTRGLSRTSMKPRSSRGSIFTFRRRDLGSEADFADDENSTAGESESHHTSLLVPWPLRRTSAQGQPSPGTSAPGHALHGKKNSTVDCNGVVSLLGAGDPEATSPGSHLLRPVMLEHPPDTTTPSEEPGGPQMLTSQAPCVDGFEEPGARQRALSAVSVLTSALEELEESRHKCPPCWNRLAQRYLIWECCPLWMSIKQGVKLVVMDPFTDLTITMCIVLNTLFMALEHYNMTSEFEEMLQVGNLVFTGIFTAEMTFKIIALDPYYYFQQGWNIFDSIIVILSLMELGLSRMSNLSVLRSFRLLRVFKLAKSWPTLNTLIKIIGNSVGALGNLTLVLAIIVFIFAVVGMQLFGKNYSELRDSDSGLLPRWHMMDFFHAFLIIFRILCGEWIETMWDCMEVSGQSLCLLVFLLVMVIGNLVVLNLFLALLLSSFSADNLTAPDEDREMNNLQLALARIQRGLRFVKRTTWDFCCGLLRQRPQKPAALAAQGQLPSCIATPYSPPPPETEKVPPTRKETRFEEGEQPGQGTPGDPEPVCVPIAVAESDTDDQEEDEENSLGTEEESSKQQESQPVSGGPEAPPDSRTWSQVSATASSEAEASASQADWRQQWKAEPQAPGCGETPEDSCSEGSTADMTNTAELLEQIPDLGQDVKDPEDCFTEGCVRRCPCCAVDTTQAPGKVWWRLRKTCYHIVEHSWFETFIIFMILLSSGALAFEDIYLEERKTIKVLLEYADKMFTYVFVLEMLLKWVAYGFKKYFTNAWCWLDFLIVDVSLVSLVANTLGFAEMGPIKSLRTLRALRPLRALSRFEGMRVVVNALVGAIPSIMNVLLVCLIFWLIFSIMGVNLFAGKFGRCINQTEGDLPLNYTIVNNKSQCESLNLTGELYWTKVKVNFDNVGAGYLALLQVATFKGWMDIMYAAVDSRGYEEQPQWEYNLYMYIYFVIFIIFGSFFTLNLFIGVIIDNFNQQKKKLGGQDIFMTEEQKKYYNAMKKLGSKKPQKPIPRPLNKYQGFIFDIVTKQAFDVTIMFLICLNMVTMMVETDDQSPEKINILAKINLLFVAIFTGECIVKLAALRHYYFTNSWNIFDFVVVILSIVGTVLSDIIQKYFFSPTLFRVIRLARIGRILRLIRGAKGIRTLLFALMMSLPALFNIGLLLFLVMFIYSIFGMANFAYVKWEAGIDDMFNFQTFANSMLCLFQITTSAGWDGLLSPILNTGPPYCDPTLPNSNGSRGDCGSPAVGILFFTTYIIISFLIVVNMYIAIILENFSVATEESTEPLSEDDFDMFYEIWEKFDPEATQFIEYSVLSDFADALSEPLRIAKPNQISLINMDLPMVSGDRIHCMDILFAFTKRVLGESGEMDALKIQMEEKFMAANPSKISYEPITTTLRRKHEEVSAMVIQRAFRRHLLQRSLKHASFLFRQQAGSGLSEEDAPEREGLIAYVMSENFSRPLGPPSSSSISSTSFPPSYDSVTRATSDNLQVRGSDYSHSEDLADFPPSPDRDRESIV
Chain of Kv4.3 (Q9UK17 whole entry): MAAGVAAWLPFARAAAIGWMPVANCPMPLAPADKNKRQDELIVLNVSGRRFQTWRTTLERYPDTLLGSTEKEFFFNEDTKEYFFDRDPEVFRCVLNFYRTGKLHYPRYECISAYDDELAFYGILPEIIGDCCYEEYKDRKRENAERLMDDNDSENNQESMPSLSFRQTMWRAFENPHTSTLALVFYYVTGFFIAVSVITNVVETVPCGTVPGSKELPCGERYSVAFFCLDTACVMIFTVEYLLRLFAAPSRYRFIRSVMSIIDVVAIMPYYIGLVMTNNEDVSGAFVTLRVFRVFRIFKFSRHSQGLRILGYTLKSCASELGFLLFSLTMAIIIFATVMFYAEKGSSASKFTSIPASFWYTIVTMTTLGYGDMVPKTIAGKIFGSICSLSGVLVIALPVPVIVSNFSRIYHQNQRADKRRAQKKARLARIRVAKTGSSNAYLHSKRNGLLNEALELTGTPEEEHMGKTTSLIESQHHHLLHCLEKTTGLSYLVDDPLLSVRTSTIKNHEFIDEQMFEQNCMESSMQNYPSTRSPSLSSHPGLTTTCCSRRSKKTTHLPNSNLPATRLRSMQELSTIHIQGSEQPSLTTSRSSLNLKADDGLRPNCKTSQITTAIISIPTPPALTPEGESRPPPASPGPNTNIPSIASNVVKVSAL

Cc1cc(CO)nc2cc3c(cc12)OC(C)(C)[C@H](O)[C@H]3NCCc1ccccc1 [BP-G1, (3R,4S)-7-(hydroxymethyl)-2,2,9-trimethyl-4-(2-phenylethylamino)-3,4-dihydropyrano[2,3-g]quinolin-3-ol]
pIC50 (Kir3.1/2 channel): 7.25 and 7.26
selectivity for Kir3.1-containing heteromers over other Kir channels [1]: strong inhibitory selectivity
pIC50 (Kv4.3): 4.95
pIC50 (Nav1.5): < 5.00
